Data taken from publication PMC9537177, “A VEGFR targeting peptide-drug conjugate (PDC) suppresses tumor angiogenesis in a TACE model for hepatocellular carcinoma therapy” (Cell Death Discovery, 2022).
Entries after “also recorded” stand apart in the source; their conditions may differ. Square brackets hold non-standard residues; d marks the D form. Peptide text beside a SMILES is read from it. Aib = CC(C)(N)C(=O)O; Ahx = NCCCCCC(=O)O

How the values were obtained:
HUVEC cells [1] = assay: Annexin V-FITC/PI cell apoptosis assay, HUVEC; format: cell-based, human; details: 10 μM, 24 h, Annexin V-PI FACS
Method: The improved proapoptotic activity of QR-KLU was further confirmed by Annexin V-PI staining through FACS. Viable cells, early apoptotic cells, necrotic cells, late apoptotic cells were represented by Q4, Q3, Q2 and Q1 respectively. […] Besides, QR-KLU induced cell apoptosis in a dose-dependent manner. […] The percentage of apoptotic cells in KLU peptide at 20 μM were about 25% in both Huh7 cells and HUVEC cells.
(§1) The apoptosis assay was performed according to the manufacturer’s instructions using an Annexin V: Fluorescein Isothiocyanate (FITC) Apoptosis Detection Kit I (BD Pharmingen™). Briefly, Huh 7 or HUVEC cells were seeded in a 12-well plate and allowed to grow for 24 h in medium with 10% FBS. Then, the cells were treated with the different peptides in medium with 5% FBS for 24 h’ incubation. The cells were harvested with 0.25% trypsin/EDTA, washed twice with PBS and suspended in 1 × binding buffer. The suspended cells were treated with FITC-labeled Annexin V and propidium iodide (PI) as the protocol indicated and then analyzed by flow cytometry to determine the apoptotic cells. The cells with positive fluorescence intensity signals for both FITC and PI were used for the apoptotic cell count.
Supplementary Figure S2. Cell apoptosis of HUVEC induced by different peptides. HUVEC cells were treated with PBS, 80μM QR, 20μM KLU, 5μM QR-KLU, 10μM QR-KLU for 24 hours before detection by FACS.

[2] = system: HT29 cells with low expression of VEGFR; assay: Cell competitive binding (cell affinity) assay by FACS, HT29; format: cell-based, human; details: QR-KLU 0-20 μM with 10 μM FAM-QR
Method: (§2) We then performed cell competitive binding assay to evaluate the affinity of the peptide conjugate to endothelial cell HUVEC with high expression of VEGFR [29]. FAM-labeled VEGF125−136 peptide QR was cultured with HUVEC cells for 4 h and then cellular penetration ability was tested by FACS. […] To further confirm our result, we then used HT29 cells to repeat this assay as HT29 cells are reported with low expression of VEGFR [29].
(§3) Fig. 2 The cell affinity of QR-KLU with different cell lines. Cell penetration of peptide QR-KLU with HUVEC cells (A) and HT29 cells (B). The cells were respectively treated with PBS, 10 μM FAM-QR + 0 μM QR-KLU, 10 μM FAM-QR + 2.5 μM QR-KLU, 10 μM FAM-QR + 5 μM QR-KLU, 10 μM FAM-QR + 10 μM QR-KLU, 10 μM FAM-QR + 20 μM QR-KLU. C The median fluorescence of HUVEC and HT29 cells treated with different peptides as mention in Fig. 2A, B.
(§4) The affinity ability of peptide QR-KLU to endothelial cells was determined by fluorescence-activated cell sorting (FACS) analysis. Briefly, the HUVEC cells were incubated on a 24-well plate for 24 h in growth medium. Then peptide QR-KLU in medium with different concentrations (0 μM, 2.5 μM, 5 μM, 10 μM, 20 μM) were respectively incubated with HUVEC cells for 30 min at 37 °C. Next, carboxy-fluorescein (FAM)-labelled-QR peptide (10 μM) were added to each well for 4 h at 37 °C. […] FACS was performed and the results were analyzed using FlowJo.

VX2 liver tumor = assay: VX2 rabbit liver tumor model with TAE/TACE: tumor growth, necrosis, apoptosis, proliferation, angiogenesis; format: in vivo, New Zealand white rabbits
Method: New Zealand white rabbits (2.5-3 kg) were purchased from the Laboratory Animal Center of Tongji Medical College of Huazhong University of Science and Technology (Wuhan, China). All the animal experimental procedures were performed in accordance with the National Institutes of Health Guidelines for the Care and Use of Laboratory Animals and the protocol was approved by the Ethics Committee of Tongji Medical College, Huazhong University of Science and Technology. Blinding was not possible in most animal experiments. The rabbit VX2 liver tumor model was established according to the method reported by Qian K et al.. […] The acquisition parameters of the sequence are as follows: […], TR 2750 ms, TE 65 ms, the field of view 120 mm × 120 mm, Slice thickness 3 mm in the transverse plane, matrix 152 × 152. The multi-vane technique was used to reduce artifacts and improve image quality, acquisition time 3 min […]; […] Seven days after TACE procedure, tumor size was evaluated again by MR scan and the tumor volume was calculated by formula: V = a * b^2/2 (a, long diameter; b, short diameter). And tumor growth rate was calculated by formula: […] Finally, the VX2 rabbits were sacrificed and the tumor tissues were harvested for biochemical analysis and histopathological examination. […] The IHC staining procedures were performed as previously described. Briefly, the sections were blocked in 3% H2O2 for 25 min and then incubated with goat serum for 15 min. Subsequently, the sections were first washed and incubated with anti-VEGF (1:200, Abcam, USA), and anti-CD31 (1:20; Abcam, USA) overnight at 4 °C, and then incubated with second antibody (Abcam, USA) at 37 °C for 50 min. Next, the sections were stained with 3, 3'-diaminobenzidine (DAB, Service bio, Wuhan […] Biotechnology Co., Ltd., China) for 6 min and rinsed and stained in hematoxylin for 30 s. The sections were then dehydrated in gradient alcohol and sealed in neutral resins. VEGF expression was assessed by semiquantitative IHC based on staining intensity and density, the staining intensity was scored as 0 (negative), 1 (weak), 2 (moderate), and 3 (strong), while the staining density was scored on the basis of the percentage of positively stained cells: 0 (0%), 1 (1-25%), 2 (26-50%), 3 (51-75%), and 4 (76-100%). The total VEGF IHC score was calculated by multiplying the intensity score by the density score. Microvessel density (MVD) was calculated according to the method developed by Weidner et al.

HUVEC cells [3] = assay: Wound-healing assay of HUVEC cells; format: cell-based, human; details: 10 μM, 24 h
Method: Wound-healing assay was performed according to the protocols reported by Liang et al.. Briefly, HUVEC cells were plated into 12-well plate and grown to create a confluent monolayer. The monolayer was grazed in a straight line to create a “scratch” with a pipette tip. Markings were created close to the scratch to be used as reference points. Then cells were treated with different peptides for 24 h at 37 °C. Images were collected with a Leica DFC480 camera on a phase-contrast microscope equipped with a 10 × objective at room temperature. The free area of the wound was measured by image software. Supplementary Figure S1. Wound healing assay to detect the cell migration influenced by different peptides.

Huh 7 cells = details: 10 μM, 24 h, Annexin V-PI FACS
Method: Viable cells, early apoptotic cells, necrotic cells, late apoptotic cells were represented by Q4, Q3, Q2 and Q1 respectively.
as §1

[4] = system: HUVEC cells with high expression of VEGFR; assay: Cell competitive binding (cell affinity) assay by FACS, HUVEC; format: cell-based, human; details: QR-KLU 0, 2.5, 5, 10, 20 μM pre-incubated 30 min at 37 °C, then 10 μM FAM-QR for 4 h
Method: as §2, §3, §4

[5] = Therapeutic safety in VX2 tumor-bearing rabbits (organ H&E, serum biochemistry)
Method: Twenty-four VX2 tumor-burdened rabbits were evenly divided into four groups. After fasting for 12 h, the rabbits were anesthetized by intravenous injection of pentobarbital sodium solution (2 wt.%, 30 mg/kg). The rabbit’s right femoral artery was dissected and a 4-F Cobra catheter (Cook, Inc., Bloomington, Indiana) was inserted into the celiac artery, hepatic arteriography was then performed under the guidance of digital subtraction angiography (DSA), and a 2.7-F coaxial microcatheter (Terumo, Tokyo, Japan) was super-selectively inserted into the tumor donor branch subsequently. The emulsion of drugs and lipiodol were slowly injected into the tumor-feeding artery through the above microcatheter at a speed of 0.5 mL/min. […] After obtaining all DSA images, the sheaths and catheters were removed.
Seven days after treatment, the liver tumors, hearts, lungs, kidneys and spleens were harvested and fixed in 4% phosphate-buffered paraformaldehyde, the specimens were embedded in paraffin blocks and cut into 5‐μm‐thick sections. Following the manufacturer’s guidelines, the sections were stained with haematoxylin and eosin (H&E) for the evaluation of organ toxicity and tumor necrosis, Ki-67 staining and transfer-mediated dUTP nick end labeling (TUNEL) technique were used to detect tumor proliferation and apoptosis, respectively.
Blood samples were collected before treatment and at 1, 3, 7 days after treatment. The blood samples were stood at room temperature for 30 min, and the serum was obtained by centrifugation (room temperature, 8000 rpm, 10 min) for assessment of alanine aminotransferase (ALT), aspartate aminotransferase (AST), total bilirubin (TBIL) and creatinine (CREA). The assays were performed using the commercially ready-made kits following the manufacturers’ instructions.

[6] = 7 days after treatment, versus NS group

**Q.** For CC(=O)N[C@@H](CCC(N)=O)C(=O)N[C@@H](CCCCN)C(=O)N[C@@H](CCCNC(=N)N)C(=O)N[C@@H](CCCCN)C(=O)N[C@@H](CCCNC(=N)N)C(=O)N[C@@H](CCCCN)C(=O)N[C@@H](CCCCN)C(=O)N[C@@H](CO)C(=O)N[C@@H](CCCNC(=N)N)C(=O)N[C@@H](Cc1ccc(O)cc1)C(=O)N[C@@H](CCCCN)C(=O)N[C@@H](CO)C(=O)NCCCCCC(=O)N[C@@H](CCCCN)C(=O)N[C@@H](CC(C)C)C(=O)NC(C)(C)C(=O)N[C@@H](CCCCN)C(=O)N[C@@H](CC(C)C)C(=O)NC(C)(C)C(=O)N[C@@H](CCCCN)C(=O)N[C@@H](CCCCN)C(=O)N[C@@H](CC(C)C)C(=O)NC(C)(C)C(=O)N[C@@H](CCCCN)C(=O)N[C@@H](CC(C)C)C(=O)NC(C)(C)C(=O)N[C@@H](CCCCN)C(N)=O [QR-KLU] (Ac-QKRKRKKSRYKS[Ahx]KL[Aib]KL[Aib]KKL[Aib]KL[Aib]K-NH2; N-terminus and C-terminus assumed), which “apoptosis rate in HUVEC cells” value (HUVEC cells [1]) is on record?
**A.** over 40%

**Q.** What about the “effect of QR-KLU on cell penetration of FAM-labeled peptide QR in HT29” value [2] of the same compound?
**A.** could not obviously affect cell penetration ability

**Q.** And the “mean tumor volume at 7 days after TAE procedure” value (VX2 liver tumor; 0.5 mL lipiodol emulsion into tumor-feeding artery, DOX 2 mg/kg, KLU 4 mg/kg, QR-KLU 4 mg/kg, MR images, 24 rabbits evenly in four groups, mean ± SD)?
**A.** 1008.5 ± 370.7 mm^3

**Q.** And the “tumor growth rate (V7/V0 × 100%)” value (VX2 liver tumor; 7 days after TAE, DOX 2 mg/kg, KLU 4 mg/kg, QR-KLU 4 mg/kg in lipiodol, NS group 276.4%)?
**A.** significantly lower than that of the NS group; also recorded: significantly lower than the other three groups

**Q.** And the “VEGF IHC score in tumor” value (VX2 liver tumor; 7 days after embolization, IHC intensity × density score, compared with NS group)?
**A.** significantly reduced the expression of CD31 and VEGF

**Q.** What about the “microvessel density (MVD), CD31 IHC” value (VX2 liver tumor; 7 days after embolization, mean of three ×200 fields, compared with NS group) of the same compound?
**A.** reduce the MVD in the tumor

**Q.** And the “mean proportion of apoptotic cells in tumor (TUNEL)” value (VX2 liver tumor; [6])?
**A.** significantly higher than that in NS group; also recorded: highest

**Q.** What about the “mean proportion of proliferating cells in tumor (Ki67)” value (VX2 liver tumor; [6]) of the same compound?
**A.** significantly lower than that in NS group; also recorded: lowest

**Q.** And the “mean tumor volume one day before TAE procedure” value (VX2 liver tumor; baseline, MR images, V = a*b^2/2, VX2 rabbits, 24 rabbits evenly in four groups, mean ± SD)?
**A.** 899.7 ± 394.0 mm^3

**Q.** What about the “cell migration of HUVEC (wound epithelial gap)” value (HUVEC cells [3]) of the same compound?
**A.** the wound epithelial gap was unchanged or even bigger

**Q.** And the “apoptosis rate in Huh 7 cells” value (Huh 7 cells)?
**A.** over 60%

**Q.** And the “effect of QR-KLU on cell penetration of FAM-labeled peptide QR in HUVEC” value [4]?
**A.** decreased cell penetration ability

**Q.** What about the “H&E staining of hearts, lungs, kidneys and spleens” value ([5]; 7 days after TACE, 4 mg/kg in lipiodol) of the same compound?
**A.** no apparent tissue injury

**Q.** And the “liver and renal toxicity (ALT, AST, TBIL, CREA in serum)” value ([5]; before and 1, 3, 7 days after treatment, 4 mg/kg in lipiodol via TAE)?
**A.** no significant liver or renal toxicity
